Measurements published in patent US20070254323A1, “Malachite green derivatives for immunoassay reagents to detect malachite green” (priority 2006, published 2007).

What was measured:
[1] = tested on: Leukomalachite Green antibody; conditions: Randox antibody raised against Leucomalachite Green immunogen; cited from earlier work
[2] = in fish; cited from earlier work
[3] = tested on: anti-Malachite Green antibodies; test: competitive ELISA: sensitivity and specificity of the produced anti-Malachite Green antibodies; format: binding, rabbit; conditions: for Cross-reactivities / Sensitivity: competitive ELISA; for Cross-reactivities: Malachite Green = 100; for Sensitivity: produced anti-Malachite Green antibodies; for level detectable by the antibodies: competitive inhibition ELISA
Description: In accordance with this embodiment, the diluted antiserum is added to a Malachite Green Chromatic conjugate-coated solid substrate such as the wells of an assay plate, together with a range of concentrations of free Malachite Green Chromatic as a competitor. Following incubation and washing, bound antibody in the wells is determined. Percent inhibition may be calculated as (1−B/B0)×100 where B is the optical density (OD) of a well with a competitor and B0 is the mean OD of the wells without competitor (control). […] However, for even greater accuracy, the affinity may be alternatively measured at 50% inhibition (IC50). […] Detection of bound antibody may be accomplished by addition of enzyme-labeled anti-immunoglobulin antibodies followed by enzyme substrate. Horseradish peroxidase and its substrate TMB are preferred enzyme/substrate labels. However, it is understood that other enzyme/substrate labels or non-enzyme labels such as radiolabels or chromophores may also be used.
Two female New Zealand White Rabbits, 8 weeks old, were initially immunized by intraperitoneal injection with 0.2 mg of Malachite Green-KLH conjugate as prepared in EXAMPLE 1 mixed with complete Freund's adjuvant. Five booster immunizations were administered at 15-day intervals using the antigen. Blood was collected 7 to 10 days after the last booster immunization in order to check for antibody titers. Titers were checked using both indirect ELISA and competitive ELISA that employed Malachite Green Chromatic-BSA conjugate as the coating antigen and free Malachite Green Chromatic as competitor. […] A typical competitive ELISA procedure is described below: • (1). In the Malachite Green Chromatic-BSA coated 96-well plate, add 50 μL of negative control and each Malachite Green Chromatic standard (1, 5, 10, 25, 50, 100 ng/mL) in duplicate into different wells; add 50 μL of each sample in duplicate into different sample wells. • (2). Add 100 μL of diluted Malachite Green Antibody #1 and mix well by gently tapping the edge of the plate for 10 seconds. • (3). Incubate the plate for 30 min at 37° C. or 1 hr at room temperature (15-25° C.). • (4). Wash the plate 3 times with 250 μL 1×PBS. After the last wash, gently slap the plate dry on paper towels. • (5). Add 150 μL of HRP Goat-against Rabbit antibody conjugate solution. Incubate the plate for 30 min at 37° C. or 1 hr at room temperature (15-25° C.). • (6). Wash the plate 3 times with 250 μL 1×PBS. After the last wash, gently slap the plate dry on paper towels. • (7). Add 100 μL of TMB substrate. • (8). Time the reaction immediately after adding the substrate; mix the solution by gently tapping the edge of the plate. • (9). After incubating for 15 min at room temperature, add 100 μL of 1 M H2SO4 to stop the enzyme reaction before reading the plate at 450 nm.

Structure (SMILES) | cross reactivity [1] | converted into Leucomalachite Green [2] | Cross-reactivities [3] | Sensitivity [3] | test sensitivity ([3]; produced antibodies, Table 1 summary) | level detectable by the antibodies [3]
CN(C)c1ccc(C(=C2C=CC(=[N+](C)C)C=C2)c2ccccc2)cc1 [Malachite Green] | 26.8% | ~80% | 100% | 1 ng/mL | 1 ppb | –
CN(C)c1ccc(C(c2ccccc2)c2ccc(N(C)C)cc2)cc1 [Leucomalachite Green] | – | – | 1% | 500 ng/mL | – | 0.5 ng/mL
CC(C)(C)NCC(O)c1cc(Cl)c(N)c(Cl)c1 (centres unmarked) [Clenbuterol] | – | – | <0.01% | >10,000 ng/ml | – | –
CN(C)c1ccc(C(O)(c2ccccc2)c2ccc(N(C)C)cc2)cc1 [Carbinol] | – | – | – | – | – | 0.5 ng/mL
CN(C)c1ccc(C(=C2C=CC(=[N+](C)C)C=C2)c2ccc(N(C)C)cc2)cc1 [Crystal Violet] | – | – | 42% | 10 ng/mL | – | –
Cc1cc(C)nc(NS(=O)(=O)c2ccc(N)cc2)n1 [Sulfumethazine] | – | – | <0.01% | >10,000 ng/ml | – | –
O=C(N[C@H](CO)[C@H](O)c1ccc([N+](=O)[O-])cc1)C(Cl)Cl [Chloramphenicol] | – | – | <0.01% | >10,000 ng/ml | – | –
O=C1OCCN1/N=C/c1ccc([N+](=O)[O-])o1 [Furazolidone] | – | – | – | >10,000 ng/ml | – | –
CN(C)c1ccc(C(c2ccc(N(C)C)cc2)c2ccc(N(C)C)cc2)cc1 [Leucocrystal Violet] | – | – | <0.01% | 5000 ng/mL | – | –
